Measurements from ChEMBL document CHEMBL1201862, “PubChem BioAssay data set” (2004).
Activity calls are given as the source filed them.

How the values were obtained:
P388/ADR = test: cells; type: functional; settings: Mus musculus
SN12K1 = test: cells; type: functional; settings: Homo sapiens
P388 = test: cells; type: functional; settings: Mus musculus
[1] = target: FAD-linked sulfhydryl oxidase ALR (Homo sapiens, UniProt P55789); test: inhibitors of human ALR sulfhydryl oxidase, dose response, biochemical, H2O2 detection, luminescence, cherry-pick (AID 493248)
FAD-linked sulfhydryl oxidase ALR, sequence (P55789 whole entry): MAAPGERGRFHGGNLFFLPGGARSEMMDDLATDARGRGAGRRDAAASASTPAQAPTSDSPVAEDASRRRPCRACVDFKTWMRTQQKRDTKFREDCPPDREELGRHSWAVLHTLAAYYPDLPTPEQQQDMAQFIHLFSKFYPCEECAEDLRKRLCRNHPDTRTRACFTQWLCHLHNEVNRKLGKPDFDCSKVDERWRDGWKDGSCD

Large T antigen = Large T antigen (Simian virus 40, UniProt P03070); type: functional, Betapolyomavirus macacae;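 also: Confirmatory-stage PubChem screen for compounds that inhibit SV40 T antigen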
Large T antigen, sequence (P03070 whole entry): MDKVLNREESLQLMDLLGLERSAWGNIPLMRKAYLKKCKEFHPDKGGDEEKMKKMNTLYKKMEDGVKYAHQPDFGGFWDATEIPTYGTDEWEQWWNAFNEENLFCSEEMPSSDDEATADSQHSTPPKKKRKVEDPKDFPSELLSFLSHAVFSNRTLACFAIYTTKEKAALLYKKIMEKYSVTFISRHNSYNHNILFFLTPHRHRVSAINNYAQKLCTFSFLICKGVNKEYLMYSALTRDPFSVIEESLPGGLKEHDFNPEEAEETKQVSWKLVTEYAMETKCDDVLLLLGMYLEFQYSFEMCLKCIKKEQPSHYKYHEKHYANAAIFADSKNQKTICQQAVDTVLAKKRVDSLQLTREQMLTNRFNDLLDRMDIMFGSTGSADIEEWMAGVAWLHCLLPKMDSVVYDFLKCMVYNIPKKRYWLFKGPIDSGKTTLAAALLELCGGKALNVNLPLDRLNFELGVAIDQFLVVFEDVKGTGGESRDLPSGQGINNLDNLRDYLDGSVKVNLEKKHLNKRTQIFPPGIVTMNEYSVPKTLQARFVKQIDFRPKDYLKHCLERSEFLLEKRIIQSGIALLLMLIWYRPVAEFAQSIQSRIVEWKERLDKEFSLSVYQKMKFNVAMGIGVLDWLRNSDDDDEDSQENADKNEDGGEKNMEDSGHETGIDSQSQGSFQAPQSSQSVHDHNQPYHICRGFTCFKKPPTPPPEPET

Nonstructural protein 1 = Nonstructural protein 1 (Influenza A virus, UniProt Q194T2); type: functional, Influenza A virus (A/California/07/2009(H1N1))
Nonstructural protein 1, sequence (Q194T2 whole entry): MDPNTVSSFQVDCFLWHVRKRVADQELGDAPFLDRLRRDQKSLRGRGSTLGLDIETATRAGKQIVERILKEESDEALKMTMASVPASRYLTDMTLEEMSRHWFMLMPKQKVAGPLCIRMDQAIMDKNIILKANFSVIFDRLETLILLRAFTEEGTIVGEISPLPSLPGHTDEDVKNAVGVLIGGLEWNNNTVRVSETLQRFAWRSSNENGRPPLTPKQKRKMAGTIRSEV

[2] = Shn3 3'UTR reporter inhibitors, dose response, cell-based, Clone20 osteoblasts, firefly luciferase, cherry-picked (AID 624132); type: functional;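 also: firefly luciferase luminescence from reporter carrying the Shn3 3'UTR in osteoblasts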
[3] = control 3'UTR Renilla luciferase suppression, dose response, counter-screen for Shn3 inhibitor project, cell-based, Clone20-Shn3RL, cherry-picked (AID 624133); type: functional
Paired box protein Pax-8 = Paired box protein Pax-8 (Homo sapiens, UniProt Q06710); test: inhibitors of PAX8-driven TPO luciferase reporter, dose response, RMG-I cells, cherry-pick (AID 687027); type: functional, cell-based;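 also: luciferase reporter driven by Pax8 target thyroperoxidase promoter measured by SteadyGlo luminescence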
Paired box protein Pax-8, sequence (Q06710 whole entry): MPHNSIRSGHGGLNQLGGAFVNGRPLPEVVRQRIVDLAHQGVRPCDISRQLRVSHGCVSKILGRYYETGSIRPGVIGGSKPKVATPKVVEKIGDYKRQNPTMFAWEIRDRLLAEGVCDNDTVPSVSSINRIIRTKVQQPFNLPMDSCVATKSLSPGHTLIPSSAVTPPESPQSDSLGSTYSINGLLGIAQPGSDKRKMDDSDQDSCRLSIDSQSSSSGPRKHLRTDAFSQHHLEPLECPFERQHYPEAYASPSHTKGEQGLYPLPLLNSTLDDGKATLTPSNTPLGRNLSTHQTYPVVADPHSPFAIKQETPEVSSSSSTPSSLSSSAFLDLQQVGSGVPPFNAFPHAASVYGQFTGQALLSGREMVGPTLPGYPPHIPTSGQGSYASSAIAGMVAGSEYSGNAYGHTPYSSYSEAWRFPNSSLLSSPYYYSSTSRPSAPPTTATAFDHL

[4] = inhibitors of intracellular T. cruzi replication, confirmation, NIH3T3 host cells, beta-gal luminescence (AID 2044); type: functional, cell-based;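 also: intracellular parasites grown in NIH/3T3 mouse fibroblasts as host cells; luminescent beta-galactosidase reporter signal from transgenic T. cruzi replicating inside host cells; inhibitors lower the luminescence signal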
[5] = cytotoxicity toward NIH3T3 fibroblasts, dose response, counter-screen, cell-based, ATP luminescence, mouse fibroblasts (AID 2010); type: functional;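 also: cells exposed to compound for about 90 hours before reading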
[6] = inhibitors of HIV Env-driven cell fusion, dose response, cherry-pick (AID 652057); type: functional, cell-based
[7] = ZM109 Env clade C HIV-1 fusion inhibitors, dose response, HeLa effector, CEM target cells, luciferase, cherry-pick (AID 652058); type: functional, cell-based
[8] = off-target signal loss in HeLa-CEM21 co-culture – HeLa F-luc CTL cells, cherry-picked, counter-screen for HIV-1 Env fusion inhibitor project, dose response (AID 652040); type: functional, cell-based;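 also: potency for signal decrease marking cytotoxic or nonspecific inhibition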
[9] = inhibitors of clade B AD8 Env fusion, dose response, cell-based, cherry-pick (AID 652062); type: functional;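 also: luciferase signal from cell-cell fusion driven by HIV-1 clade B AD8 Env; potency is for inhibitors of fusion seen as a drop in luminescence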
[10] = target: T1, Heat shock factor protein 1 (Mus musculus, UniProt P38532); test: HSF1 potentiators in luciferase reporter cells, confirmation, cell-based, NIH3T3, luminescence, dose retest (AID 435004); type: functional;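 also: stress induced by proteasome inhibitor MG132 added 30 min after compound; luciferase reporter driven by HSF1 response element in NIH3T3 cells; actives raise luminescence as potentiators of the MG132 stress response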
T1 sequence (P38532 whole entry): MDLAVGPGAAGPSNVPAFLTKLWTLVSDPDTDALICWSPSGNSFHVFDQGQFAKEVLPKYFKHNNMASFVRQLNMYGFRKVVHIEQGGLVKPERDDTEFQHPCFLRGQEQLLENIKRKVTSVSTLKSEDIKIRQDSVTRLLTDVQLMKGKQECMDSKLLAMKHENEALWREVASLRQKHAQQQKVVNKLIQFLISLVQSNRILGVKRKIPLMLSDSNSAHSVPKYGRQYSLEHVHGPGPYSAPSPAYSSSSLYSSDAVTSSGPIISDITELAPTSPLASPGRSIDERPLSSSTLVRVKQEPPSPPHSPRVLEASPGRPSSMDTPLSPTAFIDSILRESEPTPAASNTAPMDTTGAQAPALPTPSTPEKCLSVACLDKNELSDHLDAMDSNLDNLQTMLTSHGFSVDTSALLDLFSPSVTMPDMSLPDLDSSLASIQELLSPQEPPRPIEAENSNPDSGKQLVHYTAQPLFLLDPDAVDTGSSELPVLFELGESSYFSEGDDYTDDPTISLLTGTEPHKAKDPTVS

[11] = growth suppression of PTEN-null colon cells, dose response, cell-based, HCT116 PTEN knockout (AID 1047); type: functional;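 also: HCT116 colon tumor cells with PTEN knocked out; cells exposed to compound for 60 hours before readout; potency for loss of cell viability measured by luminescence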
[12] = growth suppression of beta-catenin-knockout colon cells, dose response, cell-based, HCT116, human colon tumor (AID 1045); type: functional;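 also: HCT116 colon tumor cells with beta catenin knocked out; cells exposed to compound for 60 hours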
[13] = target: T2, Microphthalmia-associated transcription factor (Homo sapiens, UniProt O75030); test: TRPM1 promoter luciferase signal decrease, dose response, MITF inhibitor project, cell-based, SK-MEL-5, cherry-picked, set 3 (AID 493073); type: functional
T2 sequence (O75030 whole entry): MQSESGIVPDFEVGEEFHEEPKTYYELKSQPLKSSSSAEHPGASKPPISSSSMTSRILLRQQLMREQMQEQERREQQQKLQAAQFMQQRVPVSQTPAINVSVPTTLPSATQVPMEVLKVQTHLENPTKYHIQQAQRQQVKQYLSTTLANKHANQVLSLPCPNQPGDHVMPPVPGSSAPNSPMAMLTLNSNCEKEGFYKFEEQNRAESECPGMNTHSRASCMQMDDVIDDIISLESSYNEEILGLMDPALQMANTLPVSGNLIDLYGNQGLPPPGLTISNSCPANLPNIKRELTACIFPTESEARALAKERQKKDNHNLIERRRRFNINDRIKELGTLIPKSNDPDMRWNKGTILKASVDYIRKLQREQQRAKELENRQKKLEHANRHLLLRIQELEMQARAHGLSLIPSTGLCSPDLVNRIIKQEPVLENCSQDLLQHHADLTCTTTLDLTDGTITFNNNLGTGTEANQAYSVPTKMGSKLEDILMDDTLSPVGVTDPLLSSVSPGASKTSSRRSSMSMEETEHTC

[14] = target: Heat shock protein HSP 90-alpha (Homo sapiens, UniProt P07900); type: functional, organism-based
Fatty acid synthase = Fatty acid synthase (Homo sapiens, UniProt P49327); test: FAS thioesterase domain inhibitors, dose response, biochemical, kinetic fluorescence intensity (AID 624326); type: functional;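 also: rate of fluorescence rise from hydrolysis of a fluorogenic O-methyl fluorescein ester substrate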
Fatty acid synthase, sequence (P49327 whole entry, the tested form may be a part): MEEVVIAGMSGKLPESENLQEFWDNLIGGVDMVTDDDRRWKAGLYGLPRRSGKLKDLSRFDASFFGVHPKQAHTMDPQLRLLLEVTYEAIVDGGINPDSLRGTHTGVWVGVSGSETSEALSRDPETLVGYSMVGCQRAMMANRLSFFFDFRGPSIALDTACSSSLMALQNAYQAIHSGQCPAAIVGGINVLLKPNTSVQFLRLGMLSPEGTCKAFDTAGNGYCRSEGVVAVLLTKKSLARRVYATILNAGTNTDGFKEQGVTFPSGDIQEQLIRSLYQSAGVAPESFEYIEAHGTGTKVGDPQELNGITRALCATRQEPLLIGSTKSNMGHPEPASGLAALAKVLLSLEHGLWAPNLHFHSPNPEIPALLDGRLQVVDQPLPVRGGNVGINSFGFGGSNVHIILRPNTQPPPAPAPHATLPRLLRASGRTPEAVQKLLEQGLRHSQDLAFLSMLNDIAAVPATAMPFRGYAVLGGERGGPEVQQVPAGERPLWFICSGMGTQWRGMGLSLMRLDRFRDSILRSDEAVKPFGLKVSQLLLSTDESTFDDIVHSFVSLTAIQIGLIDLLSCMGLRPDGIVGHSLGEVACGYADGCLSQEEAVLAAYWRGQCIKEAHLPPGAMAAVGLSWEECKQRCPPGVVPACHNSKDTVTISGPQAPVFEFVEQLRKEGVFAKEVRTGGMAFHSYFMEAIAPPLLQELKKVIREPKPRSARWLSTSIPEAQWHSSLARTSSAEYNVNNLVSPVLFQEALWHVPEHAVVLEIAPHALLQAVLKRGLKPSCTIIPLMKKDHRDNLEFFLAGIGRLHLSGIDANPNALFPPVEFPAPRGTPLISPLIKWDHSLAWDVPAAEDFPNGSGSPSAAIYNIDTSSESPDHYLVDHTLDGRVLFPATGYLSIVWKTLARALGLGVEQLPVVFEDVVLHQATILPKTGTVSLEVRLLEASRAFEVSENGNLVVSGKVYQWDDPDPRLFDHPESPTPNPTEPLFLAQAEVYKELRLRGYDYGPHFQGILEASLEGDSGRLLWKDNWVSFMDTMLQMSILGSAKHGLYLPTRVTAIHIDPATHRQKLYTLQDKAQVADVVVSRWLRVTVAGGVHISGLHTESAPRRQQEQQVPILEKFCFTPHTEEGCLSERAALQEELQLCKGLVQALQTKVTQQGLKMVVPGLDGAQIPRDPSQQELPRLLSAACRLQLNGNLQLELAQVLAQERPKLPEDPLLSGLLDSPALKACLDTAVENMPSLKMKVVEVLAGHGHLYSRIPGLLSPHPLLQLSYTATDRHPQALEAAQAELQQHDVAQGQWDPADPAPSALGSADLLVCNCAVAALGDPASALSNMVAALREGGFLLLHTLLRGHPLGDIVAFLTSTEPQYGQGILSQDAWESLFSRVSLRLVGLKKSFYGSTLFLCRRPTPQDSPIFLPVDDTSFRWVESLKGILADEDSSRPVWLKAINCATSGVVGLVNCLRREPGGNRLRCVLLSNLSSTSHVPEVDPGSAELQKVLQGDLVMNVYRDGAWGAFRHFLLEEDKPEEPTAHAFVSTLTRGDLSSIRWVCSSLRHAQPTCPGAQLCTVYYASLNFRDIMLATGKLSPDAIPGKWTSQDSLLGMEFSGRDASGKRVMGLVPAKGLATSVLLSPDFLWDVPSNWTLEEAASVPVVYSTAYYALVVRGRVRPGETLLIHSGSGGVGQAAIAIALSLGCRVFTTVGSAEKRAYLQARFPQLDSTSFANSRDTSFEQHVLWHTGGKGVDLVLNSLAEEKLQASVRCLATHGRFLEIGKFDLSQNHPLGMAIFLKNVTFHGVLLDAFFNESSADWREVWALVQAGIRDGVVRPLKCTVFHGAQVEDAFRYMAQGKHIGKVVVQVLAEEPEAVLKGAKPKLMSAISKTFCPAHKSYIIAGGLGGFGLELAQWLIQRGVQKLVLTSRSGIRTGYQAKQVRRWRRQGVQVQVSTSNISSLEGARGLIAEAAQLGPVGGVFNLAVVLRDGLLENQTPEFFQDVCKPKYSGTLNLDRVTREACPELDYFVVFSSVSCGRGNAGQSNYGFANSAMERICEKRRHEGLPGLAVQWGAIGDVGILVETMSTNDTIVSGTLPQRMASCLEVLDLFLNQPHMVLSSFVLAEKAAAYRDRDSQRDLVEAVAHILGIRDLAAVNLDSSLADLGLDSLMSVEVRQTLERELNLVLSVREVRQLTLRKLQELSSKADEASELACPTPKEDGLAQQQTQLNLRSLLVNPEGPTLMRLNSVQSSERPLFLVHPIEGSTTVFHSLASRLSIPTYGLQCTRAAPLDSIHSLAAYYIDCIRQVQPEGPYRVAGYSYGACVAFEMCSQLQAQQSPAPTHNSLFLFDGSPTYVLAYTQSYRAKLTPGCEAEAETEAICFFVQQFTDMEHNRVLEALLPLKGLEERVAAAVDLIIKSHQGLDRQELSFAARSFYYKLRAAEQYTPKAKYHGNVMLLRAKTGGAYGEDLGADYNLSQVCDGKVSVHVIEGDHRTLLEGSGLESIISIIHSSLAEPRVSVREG

[15] = Luminescence Cell-Based Dose Retest to Confirm Inhibitors of Cancer Stem Cells. [Related pubchem assays (depositor defined):AID2717, AID2721]; type: functional; settings: Homo sapiens
Aminopeptidase N = target: T3, Aminopeptidase N (Plasmodium falciparum FcB1/Columbia, UniProt O96935); test: P. falciparum M1AAP inhibitors, biochemical, fluorogenic H-Leu-NHMec substrate, 1536-well (AID 1445); parameters: species or system Plasmodium falciparum 3D7, 3D7
T3 sequence (O96935 whole entry): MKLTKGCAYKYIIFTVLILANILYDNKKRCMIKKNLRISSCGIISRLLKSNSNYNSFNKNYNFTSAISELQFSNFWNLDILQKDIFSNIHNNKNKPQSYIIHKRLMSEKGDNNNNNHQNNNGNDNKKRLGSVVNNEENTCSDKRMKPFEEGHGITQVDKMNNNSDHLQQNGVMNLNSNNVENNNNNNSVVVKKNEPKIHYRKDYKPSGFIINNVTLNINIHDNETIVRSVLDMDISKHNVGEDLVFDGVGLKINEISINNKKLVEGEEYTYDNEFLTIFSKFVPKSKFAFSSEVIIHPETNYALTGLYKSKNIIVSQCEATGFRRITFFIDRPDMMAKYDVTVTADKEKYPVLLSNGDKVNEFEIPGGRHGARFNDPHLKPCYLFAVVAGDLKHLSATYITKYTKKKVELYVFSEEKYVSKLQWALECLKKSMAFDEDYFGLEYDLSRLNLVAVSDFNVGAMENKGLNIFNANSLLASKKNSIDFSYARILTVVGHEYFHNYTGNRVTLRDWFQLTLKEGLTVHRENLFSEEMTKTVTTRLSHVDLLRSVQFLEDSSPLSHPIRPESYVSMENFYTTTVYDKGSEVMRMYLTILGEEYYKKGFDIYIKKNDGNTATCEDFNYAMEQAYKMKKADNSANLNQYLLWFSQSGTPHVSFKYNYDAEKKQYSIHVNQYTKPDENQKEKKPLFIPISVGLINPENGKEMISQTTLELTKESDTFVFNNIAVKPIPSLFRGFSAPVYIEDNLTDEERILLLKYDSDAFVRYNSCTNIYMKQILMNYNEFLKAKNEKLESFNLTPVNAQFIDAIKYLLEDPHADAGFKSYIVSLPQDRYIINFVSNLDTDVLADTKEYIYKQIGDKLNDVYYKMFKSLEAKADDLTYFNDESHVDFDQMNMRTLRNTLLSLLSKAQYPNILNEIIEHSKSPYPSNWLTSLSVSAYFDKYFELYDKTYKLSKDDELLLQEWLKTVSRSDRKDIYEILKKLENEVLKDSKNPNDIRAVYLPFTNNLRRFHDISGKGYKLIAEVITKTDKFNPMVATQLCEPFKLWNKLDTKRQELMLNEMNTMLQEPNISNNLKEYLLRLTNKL

Genome polyprotein = Genome polyprotein (dengue virus type 2, UniProt P29990); test: Dengue-2 NS5 methyltransferase inhibitors, primary screen, biochemical, confirmation dose response (AID 588689); type: functional
Genome polyprotein, sequence (P29990 2492-3391 limits assumed): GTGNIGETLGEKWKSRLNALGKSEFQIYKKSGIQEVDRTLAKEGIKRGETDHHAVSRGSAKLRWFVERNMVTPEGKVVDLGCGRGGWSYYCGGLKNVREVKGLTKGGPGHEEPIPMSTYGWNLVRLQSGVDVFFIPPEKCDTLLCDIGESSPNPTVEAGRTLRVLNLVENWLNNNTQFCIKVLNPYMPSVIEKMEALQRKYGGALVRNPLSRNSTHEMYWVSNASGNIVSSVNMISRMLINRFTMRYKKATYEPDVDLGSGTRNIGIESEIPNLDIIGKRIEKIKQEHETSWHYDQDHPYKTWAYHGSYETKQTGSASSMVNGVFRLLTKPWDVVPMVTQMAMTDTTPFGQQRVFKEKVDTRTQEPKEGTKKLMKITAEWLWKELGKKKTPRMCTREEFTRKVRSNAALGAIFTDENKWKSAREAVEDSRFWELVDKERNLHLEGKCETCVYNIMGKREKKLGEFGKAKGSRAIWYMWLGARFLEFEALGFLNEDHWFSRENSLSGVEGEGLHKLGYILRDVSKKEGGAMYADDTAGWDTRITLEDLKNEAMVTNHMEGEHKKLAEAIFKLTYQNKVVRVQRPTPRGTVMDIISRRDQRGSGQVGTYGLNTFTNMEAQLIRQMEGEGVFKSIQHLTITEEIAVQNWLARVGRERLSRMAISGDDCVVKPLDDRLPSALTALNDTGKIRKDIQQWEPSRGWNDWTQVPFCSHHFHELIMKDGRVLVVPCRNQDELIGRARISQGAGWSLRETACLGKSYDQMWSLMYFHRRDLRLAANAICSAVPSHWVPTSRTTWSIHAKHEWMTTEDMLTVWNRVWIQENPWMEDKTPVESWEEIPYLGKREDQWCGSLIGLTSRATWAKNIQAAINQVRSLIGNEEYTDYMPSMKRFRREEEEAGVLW

C=CCCCCn1c2ccccc2c2c(C)c3cnccc3c(C)c21
GI50 (P388/ADR): 1.84 µM (inactive) | GI50 (SN12K1): 5.97 µM (inactive) | GI50 (P388): 1.93 µM (inactive)

Sc1n[nH]c(-c2csc3c2CCCC3)n1
AC50 [1]: 0.044 µM (active)

Cc1ccc(C)c(S(=O)(=O)Nc2ccc(O)cc2)c1
IC50 (Large T antigen): 11.1 µM (active)

COC(=O)NC1C(C)OC(OC2C/C=C(/C)C3C=CC4C(OC5CC(OC6CCC(OC7CC(O)C(OC8CCC(O)C(C)O8)C(C)O7)C(C)O6)C(OC(C)=O)C(C)O5)C(C)CC(C)C4C3(C)/C(O)=C3/C(=O)OC4(CC(C=O)=CC(O)C4/C=C\2C)C3=O)CC1(C)[N+](=O)[O-] (stereo unspecified)
GI50 (P388/ADR): 2.64 µM (inactive) | GI50 (SN12K1): 0.262 µM (active) | GI50 (P388): 0.337 µM (active)

COC(=O)c1ccc(N2CCc3ccccc32)c([N+](=O)[O-])c1
IC50 (Nonstructural protein 1): 24 µM (active)

C/C=C/c1cc2c(c(=O)o1)C(=O)[C@@H](O)[C@H](C)O2
GI50 (P388/ADR): 2.89 µM (inactive) | GI50 (SN12K1): 17.1 µM (inactive) | GI50 (P388): 2.77 µM (inactive)

C=CC[N+](CCO)(CCO)CCCCCCCCCCCCCCCCCC
GI50 (P388/ADR): 5.3 µM (inactive) | GI50 (SN12K1): 6.08 µM (inactive) | GI50 (P388): 0.486 µM (active)

Nc1c(/N=N/c2ccc(-c3ccc(/N=N/c4c(O)ccc5cc(S(=O)(=O)O)cc(S(=O)(=O)O)c45)cc3)cc2)c(S(=O)(=O)O)cc2cc(S(=O)(=O)O)c(/N=N/c3ccccc3)c(O)c12
GI50 (SN12K1): > 100 µM (inactive) | GI50 (P388): > 100 µM (inactive)

COC(=O)C1=C(c2ccc(F)cc2OCc2ccccc2)C[C@@H]2CC[C@H]1N2C(=O)NC1Cc2ccccc2C1
AC50 [2]: 8 µM (active) | AC50 [3]: 29.3 µM (active) | AC50 (Paired box protein Pax-8): 9.27 µM (active)

CN(CCCNC(=O)C1CCCN(S(=O)(=O)c2c[nH]cn2)C1)c1ccccc1 (stereo unspecified)
AC50 [1]: 0.085 µM (active)

CC(C)CCSc1nc(N)c(C#N)cc1C#N
EC50 [4]: 0.542 µM (active) | EC50 [5]: > 60 µM (not active) | AC50 [6]: 26.2 µM (active) | AC50 [7]: 32.3 µM (active) | AC50 [8]: 23.4 µM (active) | AC50 [9]: 25.6 µM (active)

O=C1c2ccccc2C(=O)N1CCc1c[nH]c2ccc(O)cc12
IC50 (Large T antigen): 59.7 µM (active)

CCN(CC)c1ccc(CN(C(=O)c2cccs2)C2CCS(=O)(=O)C2)cc1 (stereo unspecified)
AC50 [1]: 2.65 µM (active)

O=c1cccc2n1CC1CC2CN(c2nc(N3CCCCC3)nc(N3CCCCC3)n2)C1 (stereo unspecified)
EC50 [10]: > 260 µM (inactive) | AC50 [6]: 1.69 µM (active) | AC50 [7]: 1.58 µM (active) | AC50 [8]: 3.76 µM (active) | AC50 [9]: 6.73 µM (active)

CN(C)c1ccc(NC(=O)CSc2nnc(-c3cnccn3)n2C)cc1
IC50 (Large T antigen): 17.8 µM (active)

COc1cc2cc(c1Cl)N(C)C(=O)C[C@H](OC(=O)[C@H](C)N(C)C(C)=O)[C@]1(C)O[C@H]1[C@H](C)[C@@H]1C[C@@](O)(NC(=O)O1)[C@H](OC)/C=C/C=C(/C)C2
GI50 (P388/ADR): 0.025 µM (active) | GI50 (SN12K1): 0.0262 µM (active) | GI50 (P388): 0.025 µM (active)

Cc1ccc(CN2CCSc3ccc(C(=O)NCCCN4CCN(C)CC4)cc32)cc1
AC50 [1]: 0.195 µM (active)

COc1ccc(NC(=O)CCC(=O)N/N=C/c2ccc([N+](=O)[O-])s2)cc1
EC50 [11]: 11.5 µM (active) | EC50 [12]: 11.3 µM (active) | AC50 [13]: 7.62 µM (active) | AC50 [14]: 2.7 µM (active)

CCOC(=O)c1cccc(NS(=O)(=O)c2ccc(NC(C)=O)cc2)c1
AC50 [6]: 4.26 µM (active) | AC50 [8]: 39.7 µM (active) | AC50 [9]: 10 µM (active)

N/C(S)=N/N=C/c1ccc(O)cn1
GI50 (SN12K1): 3.61 µM (inactive) | GI50 (P388): 1.95 µM (inactive)

O=C(COc1ccccc1)Nc1nc(-c2ccc(S(=O)(=O)N3CCOCC3)cc2)cs1
IC50 (Fatty acid synthase): 0.489 µM (active)

COc1ccc(C)cc1NC(=O)CSc1ccc(-c2ccccn2)nn1
IC50 (Nonstructural protein 1): 9.77 µM (active)

O=C(CC(NCc1ccccn1)C(=O)O)Nc1ccccc1Cl (stereo unspecified)
IC50 (Nonstructural protein 1): 1.48 µM (active)

Cc1nc(C)c(-c2csc(Nc3ccc(F)cc3)n2)s1
AC50 [1]: 0.185 µM (active)

Cc1ccc2nc(-c3cccc(NS(C)(=O)=O)c3)cc(-c3ccccc3)c2c1
AC50 [15]: 4.13 µM (active) | AC50 [14]: 4.75 µM (active)

COC(=O)c1ccc(COc2ccccc2/C=N/Nc2cccc(C(=O)O)c2)cc1
IC50 (Aminopeptidase N): 47 µM (active) | IC50 (Genome polyprotein): 76.2 µM (active)
